This is an account of results in patent US11440931B2, “Crocins compounds and uses thereof” (Jinan University, priority 2016, dated 2022).

Experiment [1] deals with SH-SY5Y nerve cells. The experiment is described as follows: Hydrogen peroxide-damaged SH-SY5Y cell model (MTT). It counts as cell-based. The note with it: summary in words. The protocol: (§1) 2.1 Method for Culturing SH-SY5Y Nerve Cells
(§2) The SH-SY5Y nerve cells were cultured in a DMEM culture medium (containing 5% of fetal calf serum in volume fraction) in an incubator containing 5% CO2 at 37° C., while subculturing every 3 to 4 days. Cells in a logarithmic phase were selected for experiments.
2.2 Method for Screening with Hydrogen Peroxide-Damaged Models
SH-SY5Y cells were inoculated at a concentration of 5×10^3 in a 96-well plate, and then cultured for 24 h, and 100 μL of a liquid culture medium containing H2O2 and a crocin-like compound was added to the 96-well plate, such that a final concentration of H2O2 was 400 μM and a final concentration of the crocin-like compound was 10 μM, 1 μM, 0.1 μM, with each concentration in triplicate, followed by culturing for 24 h. After 24 h, a supernatant was sucked out and discarded, and to each well was added 100 μL of MTT (0.5 mg/mL), followed by incubation for 4 h. A supernatant was sucked out and discarded, to each well was added 150 μL of DMSO, followed by shaking for 10 min, and a wavelength of 570 nm was selected to measure a value of absorbancy on a microplate reader^[12]. (Effective rate %=(ODcrocin-like compound−ODmodel)/(ODcontrol−ODmodel)*100).

For experiment [2], the system named is SH-SY5Y nerve cells. Briefly: L-glutamic acid-damaged SH-SY5Y cell model (MTT). It counts as cell-based. The note with it: summary in words. The protocol: as §1, §2
2.3 Method for Screening with L-Glutamic Acid-Damaged Models
SH-SY5Y cells were inoculated at a concentration of 5×10^3 in a 96-well plate, and then cultured for 24 h, and 100 μL of a liquid culture medium containing L-glutamic acid and a crocin-like compound was added to a 96-well plate, such that a final concentration of L-glutamic acid was 160 mM and a final medication concentration of the crocin-like compound was 10 μM, 1 μM, 0.1 μM, with each concentration in triplicate, followed by culturing for 24 h. After 24 h, a supernatant was sucked out and discarded, to each well was added 100 μL of MTT (0.5 mg/mL), followed by incubation for 4 h. A supernatant was sucked out and discarded, to each well was added 150 μL of DMSO, followed by shaking for 10 min, and a wavelength of 570 nm was selected to measure a value of absorbancy on a microplate reader^[13]. (Effective rate %=(ODcrocin-like compound−ODmodel)/(ODcontrol−ODmodel)*100).

Experiment [3] concerns PC-12 cells. As to conditions: antioxidant effect (GSH increase, inhibition of peroxidized lipid, SOD retained); cited from earlier work.

As to `CCOC(=O)/C(C)=C/C=C/C(C)=C/C=C/C=C(C)/C=C/C=C(\C)C(=O)O[C@@H]1O[C@H](CO[C@@H]2O[C@H](CO)[C@@H](O)[C@H](O)[C@H]2O)[C@@H](O)[C@H](O)[C@H]1O` [GJ-8, neocrocin H], in experiment [1], the “protection effect on SY5Y cell damage models induced by H2O2” value (“protection effect … by H2O2” below) was “more excellent protection effects”. In addition, the “protection effect on SY5Y cell damage models induced by L-glutamic acid” value (“protection effect … by L-glutamic acid” for short) in experiment [2] is listed as “more excellent protection effects”.
On to `COc1cc(/C=C/C(=O)OCC2O[C@@H](OCC3O[C@@H](OC(=O)/C(C)=C/C=C/C(C)=C/C=C/C=C(C)/C=C/C=C(\C)C(=O)O)C(O)C(O)[C@@H]3O)C(O)C(O)[C@@H]2O)cc(OC)c1O` (stereo partly shown) [GJ-7, neocrocin F], for which, in experiment [2], the “protection effect … by L-glutamic acid” value was “more excellent protection effects”.
In the case of `CC(/C=C/C=C(\C)C(=O)O[C@@H]1OC(CO[C@@H]2OC(CO)[C@@H](O)C(O)C2O)[C@@H](O)C(O)C1O)=C\C=C\C=C(C)\C=C\C=C(/C)C(=O)O[C@@H]1[C@@H](O)C[C@](O)(C(=O)O)C[C@H]1OC(=O)/C=C/c1ccc(O)c(O)c1` (stereo in doubt) [GJ-1, neocrocin B], the “protection effect … by L-glutamic acid” value in experiment [2] is on record as “more excellent protection effects”.
For `COc1cc(/C=C/C(=O)OCC2O[C@@H](OCC3O[C@@H](OC(=O)/C(C)=C/C=C/C(C)=C/C=C/C=C(C)/C=C/C=C(\C)C(=O)O[C@@H]4OC(CO[C@@H]5OC(CO)[C@@H](O)C(O)C5O)[C@@H](O)C(O)C4O)C(O)C(O)[C@@H]3O)C(O)C(O)[C@@H]2O)cc(OC)c1O` (stereo partly shown) [GJ-6, neocrocin G], the “protection effect … by H2O2” value in experiment [1] was “more excellent protection effects”. Moreover, the “protection effect … by L-glutamic acid” value in experiment [2] is listed as “more excellent protection effects”.
Take `C\C(C=O)=C/C=C/C(C)=C/C=C/C=C(C)/C=C/C=C(\C)C(=O)O[C@@H]1OC(CO[C@@H]2OC(CO)[C@@H](O)C(O)C2O)[C@@H](O)C(O)C1O` (stereo partly shown) [GJ-9, neocrocin I]: the “protection effect … by L-glutamic acid” value in experiment [2] was “more excellent protection effects”.
For the compound `CC(/C=C/C=C(\C)C(=O)O[C@@H]1O[C@H](CO[C@@H]2O[C@H](CO)[C@@H](O)[C@H](O)[C@H]2O)[C@@H](O)[C@H](O)[C@H]1O)=C\C=C\C=C(C)\C=C\C=C(/C)C(=O)O[C@@H]1O[C@H](CO[C@@H]2O[C@H](CO)[C@@H](O)[C@H](O)[C@H]2O)[C@@H](O)[C@H](O)[C@H]1O` [crocin-1, crocin digentiobioside], the “protective effect on PC-12 cells” value in experiment [3] was “protective effect on PC-12 cells”.
Consider `CC(/C=C/C=C(\C)C(=O)O)=C\C=C\C=C(C)\C=C\C=C(/C)C(=O)O[C@@H]1OC(CO[C@@H]2OC[C@@H](O)C(O)C2O)[C@@H](O)C(O)C1O` (stereo partly shown) [GJ-10, neocrocin J], for which, in experiment [1], the “protection effect … by H2O2” value is “more excellent protection effects”. Besides, the “protection effect … by L-glutamic acid” value in experiment [2] is given as “more excellent protection effects”.
